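These data come from cells grown in 96-well plates and exposed to compound for 48 hours at five concentrations. At the GI50, growth is halved. At the TGI there is no net growth.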
What was measured:
Assay in all cases: DTP human tumour cell line panel, 48 h
SN12C renal = test system: SN12C renal
MDA-MB-435 = test system: MDA-MB-435
T-47D breast = test system: T-47D breast
NCI/ADR-RES ovarian = test system: NCI/ADR-RES ovarian
HL-60(TB) leukemia = test system: HL-60(TB) leukemia
BT-549 breast = test system: BT-549 breast
PC-3 prostate = test system: PC-3 prostate
SK-MEL-2 melanoma = test system: SK-MEL-2 melanoma
786-0 renal = test system: 786-0 renal
TK-10 renal = test system: TK-10 renal
COLO 205 colon = test system: COLO 205 colon
MDA-MB-231 breast = test system: MDA-MB-231 breast

SMILES | GI50 (SN12C renal) [µM] | TGI (SN12C renal) [µM] | GI50 (MDA-MB-435) [µM] | TGI (MDA-MB-435) [µM] | GI50 (T-47D breast) [µM] | TGI (T-47D breast) [µM] | GI50 (NCI/ADR-RES ovarian) [µM] | TGI (NCI/ADR-RES ovarian) [µM] | GI50 (HL-60(TB) leukemia) [µM] | TGI (HL-60(TB) leukemia) [µM] | GI50 (BT-549 breast) [µM] | TGI (BT-549 breast) [µM] | GI50 (PC-3 prostate) [µM] | TGI (PC-3 prostate) [µM] | TGI (SK-MEL-2 melanoma) [µM] | TGI (786-0 renal) [µM] | TGI (TK-10 renal) [µM] | TGI (COLO 205 colon) [µM] | TGI (MDA-MB-231 breast) [µM]
COc1ccc(-c2nc(-c3nc4cc(Cl)c(Cl)cc4[nH]3)c3ccccn23)cc1 | > 100 | > 100 | 5.77 | > 100 | 4.06 | > 100 | 3.9 | > 100 | > 100 | > 100 | 3.08 | 9.48 | 2.58 | > 100 |  |  |  |  | 
O=C1O/C(=C(\Br)c2ccc([N+](=O)[O-])cc2)c2ccccc21 |  | > 100 |  | > 100 |  | > 100 |  | > 100 |  | > 67.1 |  | > 100 |  | > 100 | > 100 | > 100 | > 100 | > 100 | 
COc1ccc(/C=C2\C(=O)N(C(=O)c3ccc(NC(C)=O)cc3)N=C2C)cc1OC |  | > 100 |  |  |  |  |  |  |  | > 100 |  |  |  |  | > 100 | > 100 | > 100 | > 100 | 
CC(C)(C)c1ccc(O)c(C(O)c2ccccn2)c1 (stereo unspecified) |  | > 100 |  | > 100 |  | 80.9 |  | > 100 |  | > 100 |  | > 100 |  | > 100 |  | > 100 | > 100 | > 100 | > 100
Fc1ccc(F)c(C=NC23CC4CC(CC(C4)C2)C3)c1 |  | > 10 |  |  |  | > 10 |  | > 10 |  | 6.94 |  | > 10 |  | > 10 | > 10 | > 10 | > 10 | > 10 | 
CCOC(=O)c1nc2ccccc2nc1Nc1cc(OC)c(OC)c(OC)c1 |  | > 100 |  | > 100 |  | > 100 |  | > 100 |  | > 100 |  | > 100 |  |  | > 100 | > 100 |  | > 100 | > 100
CCN1CC2=C(OC(N)=C(C#N)C2c2ccc(Cl)cc2)/C(=C/c2ccc(Cl)cc2)C1 (stereo unspecified) |  |  |  | > 100 |  |  |  | > 100 |  | > 100 |  | > 100 |  | 98.9 | > 100 | 29.8 | > 100 | > 100 | 69.2
Cc1ccccc1NC(=O)C(=O)C(C1OC(=O)c2ccccc21)[N+](=O)[O-] (stereo unspecified) |  | > 100 |  |  |  |  |  |  |  | > 100 |  |  |  |  | > 100 |  | > 100 | > 100 | 
COc1cc2c(c3nc4ccccc4nc13)-c1ccc(SC)c(=O)cc1[C@@H](NC(C)=O)CC2 |  | > 100 |  | 0.0693 |  |  |  | 53 |  |  |  |  |  | > 100 | > 100 | > 100 | > 100 | 0.419 | > 100
CCCSc1ccc2[nH]c(N3C(=O)/C(=C/c4ccc(O)c(OC)c4)N=C3c3ccccc3)cc2c1 |  | 50.4 |  | > 100 |  | > 100 |  | > 100 |  | 11.6 |  | 46.4 |  | > 100 | 2.73 | > 100 |  | 19.5 | 

From PubChem BioAssay (NCI)
